The term melting point denotes the temperature of the solid-liquid transition.

For the compound `CCOC(=O)C1=C(Nc2cccc(O)c2)OCC1=O`, the melting point fell in the range of 210 to 211 °C. In turn, `CCOC(=O)C1=C(Nc2cccc(Cl)c2)OCC1=O` yielded a melting point of 159.5 °C. The result for `CCOC(=O)C1=C(Nc2cc(OC)cc(OC)c2)OCC1=O` reads 145.6 °C. The result for `CCOC(=O)C1=C(Nc2ccccc2)OCC1=O` reads 115 to 116 °C.

(Values after US9205073B2, “Method for treating virus infection using derivative of aniline” (CHINA MEDICAL UNIVERSITY, priority 2014, dated 2015).)
